Data taken from patent publication US4950659A, “16,17-acetalsubstituted androstane-17β-carboxylic acid esters prossessing high binding affinity to the glucocorticosteroid receptor” (Aktiebolaget Draco, priority 1985, dated 1990).

Biological target: T1, glucocorticoid receptor (Rattus norvegicus, UniProt P06536)
T1 construct: The thymus was removed and put into ice-cold saline; from tissue; host or cells: thymus of male Sprague-Dawley rats, 20,000×g supernatant of homogenate
T1 sequence (P06536 1-795): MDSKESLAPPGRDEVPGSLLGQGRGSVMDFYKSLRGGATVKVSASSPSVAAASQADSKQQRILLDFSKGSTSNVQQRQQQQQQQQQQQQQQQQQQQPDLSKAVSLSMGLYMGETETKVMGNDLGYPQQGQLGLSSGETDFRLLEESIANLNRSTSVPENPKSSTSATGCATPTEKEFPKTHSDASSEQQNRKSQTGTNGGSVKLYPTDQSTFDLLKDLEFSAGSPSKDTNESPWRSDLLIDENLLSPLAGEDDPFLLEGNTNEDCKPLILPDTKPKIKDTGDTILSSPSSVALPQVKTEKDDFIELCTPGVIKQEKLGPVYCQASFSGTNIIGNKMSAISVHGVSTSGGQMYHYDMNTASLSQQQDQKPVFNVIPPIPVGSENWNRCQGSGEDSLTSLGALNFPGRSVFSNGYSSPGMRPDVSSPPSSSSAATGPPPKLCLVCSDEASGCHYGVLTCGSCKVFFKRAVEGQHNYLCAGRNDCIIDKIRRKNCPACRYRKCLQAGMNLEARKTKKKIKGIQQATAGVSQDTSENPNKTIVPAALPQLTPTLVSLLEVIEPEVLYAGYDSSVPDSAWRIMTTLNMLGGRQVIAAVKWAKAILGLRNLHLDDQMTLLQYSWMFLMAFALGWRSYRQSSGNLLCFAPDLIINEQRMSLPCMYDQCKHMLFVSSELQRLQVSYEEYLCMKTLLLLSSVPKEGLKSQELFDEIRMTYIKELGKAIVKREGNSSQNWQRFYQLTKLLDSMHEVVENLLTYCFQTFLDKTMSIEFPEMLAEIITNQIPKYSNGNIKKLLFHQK
Experiment: Relative binding affinity to the glucocorticoid receptor: competition with 3H-labelled dexamethasone in rat thymus 20,000×g supernatant
Conditions: curves compared at the 50% specific binding level of [3H]dexamethasone, referenced to budesonide, assigned RBA = 1, about 24 h at 0° C.
Procedure: All steroids according to the present invention are physiologically active compounds. The affinity of the novel androstane-17β-carboxylic acid esters to the glucocorticoid receptor has been used as a model for determination of the anti-inflammatory potency.
Male Sprague-Dawley rats, one to two months of age, were used throughout the investigation. The thymus was removed and put into ice-cold saline. The tissue was homogenized in a Potter Elvehjem homogenizer in 10 ml of a buffer containing 20 mM Tris, pH 7.4, 10% (w/v) glycerol, 1 mM EDTA, 20 mM NaMoO4, 10 mM mercaptoethanol. The homogenate was centrifuged for 15 min at 20,000×g. Portions of the 20,000×g supernatant (230 μl) were incubated for about 24 h at 0° C. with 100 μl phenylmethylsulphonylfluoride (an esterase inhibitor, final conc. 0.5 mM). 20 μl unlabelled competitor and 50 μl ^3 H-labelled dexamethasone (final conc. […]). Bound and free steroid were separated by incubating the mixture with 60 μl 2.5% (w/v) charcoal and 0.25% (w/v) dextran T70 suspension in 20 mM Tris, pH 7.4, 1 mM EDTA, and 20 mM NaMoO4 for 10 min at 0° C. Following a centrifugation at 500×g for 10 min, 230 μl or the supernatant was counted in 10 ml Insta-Gel in a Packard scintillation spectrophotometer. The supernatants were incubated with (a) [^3 H]dexamethasone alone, (b) [^3 H]dexamethasone plus 1000 fold excess of unlabelled dexamethasone and (c) [^3 H]dexamethasone plus 0.03-300 fold "excess" of competitor. The nonspecific binding was determined when 1000 fold excess of unlabelled dexamethasone was added to [^3 H]-labelled dexamethasone.
The radioactivity bound to the receptor in the presence of competitor divided by the radioactivity bound to the receptor in the absence of competitor multiplied by 100 gives the percentage specific binding of labelled dexamethasone. For each concentration of a competitor the percentage specifically bound radioactivity is plotted against the log of concentration of competitor. The curves are compared at the 50% specific binding level and referenced to budesonide, which is assigned a relative binding affinity (RBA) of 1.

First: CCOC(=O)OC(C)OC(=O)C12OC(C)(C)OC1CC1C3CC(F)C4=CC(=O)C=CC4(C)C3(F)C(O)CC12C (single isomer, unassigned) [Example 4 epimer B, 1'-Ethoxycarbonyloxyethyl 6α,9α-difluoro-11β-hydroxy-16α,17α-[(1-methylethylidene)bis(oxy)]androsta-1,4-diene-3-one-17β-carboxylate]
Second: CC(=O)OC(C)OC(=O)C12OC(C)(C)OC1CC1C3CC(F)C4=CC(=O)C=CC4(C)C3(F)C(O)CC12C (single isomer, unassigned) [Example 5 epimer B, 1'-Acetoxyethyl 6α,9α-difluoro-11β-hydroxy-16α,17α-[(1-methylethylidene)bis(oxy)]androsta-1,4-diene-3-one-17β-carboxylate]
The “relative binding affinities (RBA) to the glucocorticoid receptor” value (“relative binding affinities (RBA)” for short) of the first is higher: 0.30 for the first, 0.17 for the second.

First: CC(C)OC(=O)OC(C)OC(=O)C12OC(C)(C)OC1CC1C3CC(F)C4=CC(=O)C=CC4(C)C3(F)C(O)CC12C (single isomer, unassigned) [Example 27, 1'-isopropoxycarbonyloxyethyl 6α,9α-difluoro-11β-hydroxy-16α,17α-[(1-methylethylidene)bis(oxy)]androsta-1,4-diene-3-one-17β-carboxylate]
Second: CCC[C@@H]1O[C@@H]2C[C@H]3[C@@H]4C[C@H](F)C5=CC(=O)C=C[C@]5(C)[C@@]4(F)[C@@H](O)C[C@]3(C)[C@]2(C(=O)OC(C)OC(=O)OC(C)C)O1 (single isomer, unassigned) [Example 87]
The “relative binding affinities (RBA)” value of the first is lower: 0.50 for the first, 0.63 for the second.

Compared with `CCC[C@@H]1O[C@@H]2C[C@H]3[C@@H]4CCC5=CC(=O)C=C[C@]5(C)[C@@]4(F)[C@@H](O)C[C@]3(C)[C@]2(C(=O)OC(C)OC(C)=O)O1` (single isomer, unassigned) [Example 55], `CCC[C@@H]1O[C@@H]2C[C@H]3[C@@H]4CCC5=CC(=O)C=C[C@]5(C)[C@@]4(F)[C@@H](O)C[C@]3(C)[C@]2(C(=O)OC(C)OC(=O)OCC)O1` (single isomer, unassigned) [Example 69] is higher in “relative binding affinities (RBA)” value: 0.20 for the first, 0.44 for the second.

First: CCC[C@@H]1O[C@@H]2C[C@H]3[C@@H]4C[C@H](F)C5=CC(=O)C=C[C@]5(C)[C@@]4(F)[C@@H](O)C[C@]3(C)[C@]2(C(=O)OC(C)OC(=O)OCC)O1 (single isomer, unassigned) [Example 84]
Second: CCC[C@@H]1O[C@@H]2C[C@H]3[C@@H]4C[C@H](F)C5=CC(=O)C=C[C@]5(C)[C@@]4(F)[C@@H](O)C[C@]3(C)[C@]2(C(=O)OCOC(=O)OCC)O1 [Example 64]
The “relative binding affinities (RBA)” value of the first is higher: 1.03 for the first, 0.05 for the second.

`CCOC(=O)OC(C)(C)OC(=O)C12OC(C)(C)OC1CC1C3CC(F)C4=CC(=O)C=CC4(C)C3(F)C(O)CC12C` (stereo not shown) [Example 38] and `CCC[C@@H]1O[C@@H]2C[C@H]3[C@@H]4CCC5=CC(=O)C=C[C@]5(C)[C@H]4[C@@H](O)C[C@]3(C)[C@]2(C(=O)OC(C)OC(=O)OCC)O1` (stereo partly shown) [Example 67] are the same in “relative binding affinities (RBA)” value: 0.04 for the first, 0.04 for the second.
